This is an account of results in patent US7462599B2, “Use of effectors of glutaminyl and glutamate cyclases” (Probiodrug AG, priority 2003, dated 2008).

Data set [1] addresses T1, QC (Homo sapiens, UniProt Q16769). The experiment in a line: LC/MS analysis of QC-catalyzed pyroglutamate formation. The format is biochemical.
Data set [2] addresses T1, QC. The experiment in a line: Long-term Glu1-cyclization of Aβ-derived peptides by recombinant human QC, MALDI-TOF. On the set-up: The cDNA of the mature QC starting with codon 38 was fused in frame with the plasmid encoded 6× histidine tag; 6x histidine tag; made in house; host or cells: Pichia pastoris X33 (pPICZαB); also E. coli M15 (pQE-31). The note with it: 5 mM benzimidazole. The format is biochemical. The source says: At different times, samples were removed from the assay tube, peptides extracted using ZipTips (Millipore) according to the manufacturer's recommendations, mixed with matrix solution (1:1 v/v) and subsequently the mass spectra recorded.

For data set [3], the target named is T1, QC. Nature of the data set: MALDI-TOF qualitative substrate conversion, human QC. The format is biochemical. On the set-up: The cDNA of the mature QC starting with codon 38 was fused in frame with the plasmid encoded 6× histidine tag; 6x histidine tag; made in house; host or cells: Pichia pastoris X33 (pPICZαB); also E. coli M15 (pQE-31). On the procedure: (§1) Matrix-assisted laser desorption/ionization mass spectrometry was carried out using the Hewlett-Packard G2025 LD-TOF System with a linear time of flight analyzer. […] Samples (5 μl) were mixed with equal volumes of the matrix solution. For matrix solution we used DHAP/DAHC, prepared by solving 30 mg 2′,6′-dihydroxyacetophenone (Aldrich) and 44 mg diammonium hydrogen citrate (Fluka) in 1 ml acetonitrile/0.1% TFA in water (1/1, v/v). A small volume (≈1 μl) of the matrix-analyte-mixture was transferred to a probe tip and immediately evaporated in a vacuum chamber (Hewlett-Packard G2024A sample prep accessory) to ensure rapid and homogeneous sample crystallization.
In order to further investigate the specificity and selectivity of the QCs, peptides were synthesized comprising either a modified N-terminal glutaminyl residue or a modified amino acid in the second position. […] Due to the cyclization of the glutaminyl residue or its analog, respectively, a mass difference of the substrate and the product of catalysis is detected. In cases of ammonia liberation of one mole per mole of substrate, the conversion was also analyzed quantitatively using the spectrophotometric assay.

In data set [4] the target is T1, QC. The experiment in a line: Fluorometric QC assay with pyroglutamyl aminopeptidase as auxiliary enzyme, human QC. On the set-up: The cDNA of the mature QC starting with codon 38 was fused in frame with the plasmid encoded 6× histidine tag; 6x histidine tag; made in house; host or cells: Pichia pastoris X33 (pPICZαB); also E. coli M15 (pQE-31). The format is biochemical. Particulars: H-Gln-AMC as substrate. The source says: Excitation/emission wavelengths were 320/410 nm.
H-Glu(OMe)-βNA and H-Glu-βNA.

Data set [5] deals with Glutaminyl cyclase present in the homogenate of porcine pituitary. Nature of the data set: Cyclization of Gln3-Aβ(3-11)a by QC in pituitary homogenate, MALDI-TOF. The format is biochemical. On the procedure:
as §1

The subject of a further data set is DP IV and QC. Nature of the data set: Consecutive catalysis of DP IV and QC in crude pituitary homogenate with added DPIV, MALDI-TOF. The class given is biochemical, porcine. Particulars: inhibitor added. The procedure: as §1
A further data set has as its system mammalian QC. The note with it: Busby et al. 1987; cited from earlier work.
Data set [6] has as its target T1, QC. Nature of the data set: Enzyme inactivation/reactivation of human QC. The class given is biochemical. More on the design: The cDNA of the mature QC starting with codon 38 was fused in frame with the plasmid encoded 6× histidine tag; 6x histidine tag; made in house; host or cells: Pichia pastoris X33 (pPICZαB); also E. coli M15 (pQE-31).
A short description of data set [7]: Solubility in aqueous solution.
In the next data set the target is T2, DP IV (porcine kidney) (Sus scrofa, UniProt P22411).
T2 construct: purified DP IV (porcine kidney); from tissue; host or cells: porcine kidney
T2 sequence (P22411 whole entry): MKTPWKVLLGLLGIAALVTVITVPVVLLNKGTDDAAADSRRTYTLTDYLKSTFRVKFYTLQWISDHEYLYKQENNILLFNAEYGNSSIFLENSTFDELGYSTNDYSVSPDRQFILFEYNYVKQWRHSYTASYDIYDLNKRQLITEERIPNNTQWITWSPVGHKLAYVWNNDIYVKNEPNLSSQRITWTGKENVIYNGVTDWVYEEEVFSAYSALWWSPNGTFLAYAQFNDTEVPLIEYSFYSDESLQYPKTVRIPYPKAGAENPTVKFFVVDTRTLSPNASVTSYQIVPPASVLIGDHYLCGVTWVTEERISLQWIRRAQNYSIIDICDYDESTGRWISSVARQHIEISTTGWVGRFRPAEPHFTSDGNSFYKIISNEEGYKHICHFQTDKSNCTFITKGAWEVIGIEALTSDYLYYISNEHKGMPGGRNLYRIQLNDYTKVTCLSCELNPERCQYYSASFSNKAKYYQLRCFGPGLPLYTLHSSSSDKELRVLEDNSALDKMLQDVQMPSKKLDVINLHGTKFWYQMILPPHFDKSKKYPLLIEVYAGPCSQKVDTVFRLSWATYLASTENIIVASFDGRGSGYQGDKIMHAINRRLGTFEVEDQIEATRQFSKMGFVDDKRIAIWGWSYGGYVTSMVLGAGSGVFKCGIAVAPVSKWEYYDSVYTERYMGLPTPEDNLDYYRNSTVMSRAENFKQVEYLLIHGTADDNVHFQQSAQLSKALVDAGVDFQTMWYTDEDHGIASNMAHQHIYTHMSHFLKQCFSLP
The experiment in a line: DP IV cleavage of Gln3-Aβ(1-11)a, MALDI-TOF. The format is biochemical. The procedure:
as §1

Entries after “also recorded” stand apart in the source; their conditions may differ. Read-outs that look alike come from different tables or passages of the source. Ends that are not written are not given here.

T1 sequence (Q16769 29-361): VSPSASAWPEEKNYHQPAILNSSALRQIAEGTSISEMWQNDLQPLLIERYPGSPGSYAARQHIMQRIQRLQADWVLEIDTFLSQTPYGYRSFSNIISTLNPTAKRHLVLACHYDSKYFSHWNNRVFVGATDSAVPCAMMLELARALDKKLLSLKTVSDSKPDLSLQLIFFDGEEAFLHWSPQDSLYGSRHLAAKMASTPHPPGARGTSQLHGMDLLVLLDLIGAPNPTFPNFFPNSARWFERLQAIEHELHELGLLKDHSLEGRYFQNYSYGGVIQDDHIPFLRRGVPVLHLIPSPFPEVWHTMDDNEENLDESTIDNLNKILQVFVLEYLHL

In the case of “[Gln^5]-substance P(5-11): substance P fragment 5-11 with N-terminal Gln^5 after cleavage of residues 1-4 (QQFFGLM; ends and bridges not checked)”, the “formation of N-terminal pyroglutamate catalyzed by QC” value in the data set with QC [1] is given as “transformed by QC”.

With `c1ccc2[nH]cnc2c1` [benzimidazole], the “suppression of [pGlu3]Aβ(3-11)a / [pGlu3]Aβ(3-21)a formation” value is listed as “suppressed” at QC [2] and “suppressing the formation” on QC [2] (listed as Benzimidazole).

“H-Gln(NMe)-Phe-Lys-Ala-Glu-NH2 (H-QFKAE-NH2; not fully specified (residue 1); printed as H-Gln(NMe)-Phe-Lys-Ala-Glu-NH2)”: the “conversion by human QC” value in the data set with QC [3] was “not recognized by human QC; also recorded: No substrate conversion was observed”. Further, the “inhibition of human QC by the peptide” value with QC [4] is “not detected”.

For the compound “H-Gln-Lys(Gln)-Arg-Leu-Ala-NH2 (H-QK(Gln)RLA-NH2; SMILES CC(C)C[C@H](NC(=O)[C@H](CCCNC(=N)N)NC(=O)[C@H](CCCCNC(=O)[C@@H](N)CCC(N)=O)NC(=O)[C@@H](N)CCC(N)=O)C(=O)N[C@@H](C)C(N)=O) [H-Gin-Lys(Gln)-Arg-Leu-Ala-NH2]”, the “conversion by human QC” value with QC [3] is given as “converted”.

Regarding `c1cnc2c(c1)ccc1cccnc12` [1,10-phenanthroline], the “inhibition of formation of [pGlu3]Aβ(3-11)a from Gln3-Aβ(3-11)a” value in data set [5] is given as “inhibited; also recorded: inhibition of the formation”. Besides, the “[pGlu3]Aβ(3-11)a formation from Gln3-Aβ(1-11)a in presence of DP IV and QC” value in the data set with DP IV and QC is recorded as “inhibition”. In the data set with mammalian QC, the “inhibition of mammalian QC” value is listed as “Inhibition of a mammalian QC was only detected”. The “inhibition of human QC catalyzed substrate cyclization by chelators” value on QC [6] is listed as “inhibited”. In addition, the “inactivation of human QC after extensive dialysis” value on QC [6] (5 mM inactivating agent) is “almost completely inactivated”.

With QFRHDSGYE-NH2 [[Gln^3]Aβ3-11a], in data set [7], the “solubility in aqueous solution” value is listed as “better solubility”.

With `CC(C)[C@H](N)C(=O)N1CCCC1` [Val-Pyrr, Val-Pyrrolidide], the “prevention of DP IV cleavage of Gln3-Aβ(1-11)a” value at DP IV (porcine kidney) is “completely prevented”; on DP IV (porcine kidney) (listed as Val-Pyrrolidide) it was “prevention of the cleavage”. The “[pGlu3]Aβ(3-11)a formation from Gln3-Aβ(1-11)a in presence of DP IV and QC” value in the data set on DP IV and QC is recorded as “reduction”.
